Inhibition data for 17 compounds are collected here from patent US20230374034A1, “NOVEL BICYCLIC COMPOUNDS” (PRISM BIOLAB CO., LTD., priority 2020, published 2023).

Each structure is given as a SMILES string.

The first experiment has as its system NICD (Notch intracellular domain) CSL-bla reporter in HeLa cells. As to the kind of experiment: Notch assay (CellSensor T-REx NICD CSL-bla HeLa beta-lactamase reporter; Method 1 / Method 2). The conditions noted are these: Homo sapiens, 10 μM compound, Method 1 (10× compound prepared in assay medium, added to plated cells), read-out: inhibiton (%) at 10 μM. Format: cell-based. The source says:
We used the CellSensor T-REx™ NICD CSL-bla HeLa cell line, which was engineered by lentiviral transduction of HeLa cells with a Notch response element driving beta-lactamase reporter gene expression (CSL-bla) along with DOX (doxycycline)-inducible NICD (Notch intracellular domain) constructs. Addition of DOX to these cells allows for regulated NICD transcription factor expression and subsequent beta-lactamase expression.
Specifically, the following protocol was used.
NOTCH ASSAY PROTOCOL (Method 2)
• 1. Add 40 nL/well of working concentration of 1000× compound to 384-well assay plate with Echo. • 2. Plate Cells: 35 μl/well of HeLa/T-REx™ NICD CSL-bla cells at 10^3 cells/well complete medium into 384-well plate. • 3. Add 5 μl 8× Doxycycline in Assay Medium to the treated wells, and 5 μl Assay Medium to the Untreated and cell free control wells. • 4. Incubate the assay plate in a humidified 37° C./5% CO2 incubator for 16-20 hours. • 5. Preparation of 6× LiveBLAzer™-FRET B/G Substrate (CCF4-AM) Mixture according to the manual and cell loading should be done in the absence of direct strong lighting. • 6. Remove assay plate from the humidified 37° C./5% CO2 incubator. Add 8 μl of 6× Substrate Mixture from Step 5 to each well. Cover the plate to protect it from light and evaporation. Incubate at room temperature for 4 hours. • 7. Reading an Assay Plate using the following filter selections:
• 8. Data analysis: Use the assay plate layout to identify the location of the Cell-free wells. These control wells are used for background subtraction. Determine the average emission from the Cell-free wells at both 460 nm (Average Blue Background) and 530 nm(Average Green Background). Subtract the Average Blue Background (data collected at 460 nm) from all of the blue emission data. Subtract the Average Green background (data collected at 530 nm) from all of the green emission data. Calculate the Blue/Green Emission Ratio for each well, by dividing the background-subtracted blue emission values by the background-subtracted green emission values.
Instead of Step 1 to Step 3, the following Step a to Step d can also be performed. The subsequent steps are the same as Method 2, after Step 4 (Method 1). • a. Plate Cells: 32 μL/well of HeLa/T-REx™ NICD CSL-bla cells at 10^3 cells/well complete medium into 384-well plate. • b. Prepare 10× compounds in assay medium. • c. Add 4 μL compounds or 1% DMSO in assay medium to the cells. • d. Add 4 μL 10×Doxycycline in Assay Medium to the treated wells, and 4 μL Assay Medium to the Untreated and cell free control wells.
The results are shown in Table 13 (Table 13-1 to Table 13-2).
Take `CC(C)[C@H]1C(=O)N(CC2CCCCC2)CC2N(C(=O)OCc3cccc4ccccc34)O[C@H](CC(N)=O)C(=O)N21` (stereo partly drawn) [Compound I-18, (3R,6S)-naphthalen-1-ylmethyl 3-(2-amino-2-oxoethyl)-8-(cyclohexylmethyl)-6-isopropyl-4,7-dioxohexahydropyrazino[2,1-c][1,2,4]oxadiazine-1(6H)-carboxylate]: the inhibition at 10 µM is 54%. On the same count and under the same terms, the figure for `CC(C)CCN1CC2N(C(=O)OCc3cccc4ccccc34)O[C@H](Cc3ccccc3)C(=O)N2[C@@H](C)C1=O` (stereo partly drawn) [Compound I-15, (3R,6S)-naphthalen-1-ylmethyl 3-benzyl-8-isopentyl-6-methyl-4,7-dioxohexahydropyrazino[2,1-c][1,2,4]oxadiazine-1(6H)-carboxylate] is 52.6%. For the compound `CC(C)N1CC2N(C(=O)OCc3cccc4ccccc34)O[C@H](Cc3ccccc3)C(=O)N2[C@@H](Cc2ccc(O)cc2)C1=O` (stereo partly drawn) [Compound I-17, (3R,6S)-naphthalen-1-ylmethyl 3-benzyl-6-(4-hydroxybenzyl)-8-isopropyl-4,7-dioxohexahydropyrazino[2,1-c][1,2,4]oxadiazine-1(6H)-carboxylate], the inhibition at 10 µM came out at 88%.

The same experiment, now with this note: Homo sapiens, 10 μM compound, Method 2 (40 nL of 1000× compound added to plate with Echo), read-out: inhibiton (%) at 10 μM.
As to `CC(C)C[C@@H](C(=O)NCCc1ccccc1)N1CC2N(C(=O)OCCc3ccccc3)O[C@H](Cc3ccc(O)cc3)C(=O)N2[C@@H](Cc2ccc(O)cc2)C1=O` (stereo partly drawn) [Compound I-115, phenethyl (3R,6S)-3,6-bis(4-hydroxybenzyl)-8-((S)-4-methyl-1-oxo-1-(phenethylamino)pentan-2-yl)-4,7-dioxohexahydropyrazino[2,1-c][1,2,4]oxadiazine-1(6H)-carboxylate], the inhibition at 10 µM stood at 51.1%.

Turning to `CC(C)OC(=O)N1O[C@H](CC2CCCCC2)C(=O)N2C1CN(CCc1ccccc1)C(=O)[C@@H]2CCCCN` (stereo partly drawn) [Compound I-37, (3R,6S)-isopropyl 6-(4-aminobutyl)-3-(cyclohexylmethyl)-4,7-dioxo-8-phenethylhexahydropyrazino [2,1-c][1,2,4]oxadiazine-1(6H)-carboxylate], the inhibition at 10 µM is 87.3%. For `CCCC[C@@H](C(=O)NCCC(C)C)N1CC2N(C(=O)OCCc3ccccc3)O[C@H](Cc3ccccc3)C(=O)N2[C@@H](Cc2ccccc2)C1=O` (stereo partly drawn) [Compound I-82, phenethyl (3R,6S)-3,6-dibenzyl-8-((S)-1-(isopentylamino)-1-oxohexan-2-yl)-4,7-dioxohexahydro-pyrazino[2,1-c] [1,2,4]oxadiazine-1(6H)-carboxylate], the inhibition at 10 µM was determined as 51.2%. On the same count and under the same terms, the figure for `COC(=O)N1O[C@H](CC2CCCCC2)C(=O)N2C1CN(CC1CCCCC1)C(=O)[C@@H]2CCCCN` (stereo partly drawn) [Compound I-36, (3R,6S)-methyl 6-(4-aminobutyl)-3,8-bis(cyclohexylmethyl)-4,7-dioxohexahydropyrazino[2,1-c][1,2,4]oxadiazine-1(6H)-carboxylate] is 52.2%; for `CCCCCOC(=O)N1O[C@H](CC(C)C)C(=O)N2C1CN([C@@H](Cc1ccccc1)C(=O)NCCC(C)C)C(=O)[C@@H]2Cc1ccc(O)cc1` (stereo partly drawn) [Compound I-92, pentyl (3R,6S)-6-(4-hydroxybenzyl)-3-isobutyl-8-((S)-1-(isopentylamino)-1-oxo-3-phenylpropan-2-yl)-4,7-dioxohexahydropyrazino[2,1-c][1,2,4]oxadiazine-1(6H)-carboxylate] it is 50.1%. On the same count and under the same terms, the figure for `CN1CCC(N2CC3N(C(=O)OCc4ccccc4)O[C@H](CC4CCCCC4)C(=O)N3[C@@H](CC3CCCCC3)C2=O)CC1` (stereo partly drawn) [Compound I-139, benzyl (3R,6S)-3,6-bis (cyclohexylmethyl)-8-(1-methylpiperidin-4-yl)-4,7-dioxohexahydropyrazino [2,1-c][1,2,4]oxadiazine-1(6H)-carboxylate] is 116%; for `CCCCCCNC(=O)N1O[C@H](Cc2ccccc2)C(=O)N2C1CN(CCC(c1ccccc1)c1ccccc1)C(=O)[C@@H]2CCC(N)=O` (stereo partly drawn) [Compound I-57, (3R,6S)-6-(3-amino-3-oxopropyl)-3-benzyl-8-(3,3-diphenylpropyl)-N-hexyl-4,7-dioxohexahydropyrazino[2,1-c][1,2,4]oxadiazine-1(6H)-carboxamide] it is 63.4%; for `C[C@H]1C(=O)N(CCC(c2ccccc2)c2ccccc2)CC2N(C(=O)OCC3CCCCC3)O[C@H](CCCNC(=N)N)C(=O)N21` (stereo partly drawn) [Compound I-53, (3R,6S)-cyclohexylmethyl 8-(3,3-diphenylpropyl)-3-(3-guanidinopropyl)-6-methyl-4,7-dioxohexahydropyrazino[2,1-c][1,2,4]oxadiazine-1(6H)-carboxylate] it is 53.6%. `C[C@H]1ON(C(=O)OCCc2ccccc2)C2CN([C@@H](Cc3ccccc3)C(=O)NCCC(N)=O)C(=O)[C@H](Cc3ccccc3)N2C1=O` (stereo partly drawn) [Compound I-85, phenethyl (3R,6S)-8-((S)-1-((3-amino-3-oxopropyl)amino)-1-oxo-3-phenylpropan-2-yl)-6-benzyl-3-methyl-4,7-dioxohexahydro-pyrazino[2,1-c] [1,2,4]oxadiazine-1(6H)-carboxylate]: the inhibition at 10 µM turned out to be 66.5%. Same read-out and setting: the figure for `CCCCCN1CC2N(C(=O)OCC(C)C)O[C@H](CC3CCCCC3)C(=O)N2[C@@H](CCCCN)C1=O` (stereo partly drawn) [Compound I-34, (3R,6S)-isobutyl 6-(4-aminobutyl)-3-(cyclohexylmethyl)-4,7-dioxo-8-pentylhexahydropyrazino [2,1-c][1,2,4]oxadiazine-1(6H)-carboxylate] is 120%; for `NC(=O)CC[C@H]1ON(C(=O)NCCC(c2ccccc2)c2ccccc2)C2CN(Cc3cccc4ccccc34)C(=O)[C@H](Cc3ccccc3)N2C1=O` (stereo partly drawn) [Compound I-54, (3R,6S)-3-(3-amino-3-oxopropyl)-6-benzyl-N-(3,3-diphenylpropyl)-8-(naphthalen-1-ylmethyl)-4,7-dioxohexahydropyrazino[2,1-c][1,2,4]oxadiazine-1(6H)-carboxamide] it is 60.4%; for `CC(C)C[C@H]1ON(CCCc2ccccc2)C2CN(C3CCN(C)CC3)C(=O)[C@H](CC3CCCCC3)N2C1=O` (stereo partly drawn) [Compound I-143, (3R,6S)-6-(cyclohexylmethyl)-3-isobutyl-8-(1-methylpiperidin-4-yl)-1-(3-phenylpropyl) tetrahydropyrazino [2,1-c][1,2,4]oxadiazine-4,7(3H,6H)-dione] it is 105%. On the same count and under the same terms, the figure for `CC(C)C[C@H]1ON(C(=O)OCc2ccccc2)C2CN(C3CCN(C)CC3)C(=O)[C@H](CC3CCCCC3)N2C1=O` (stereo partly drawn) [Compound I-140, benzyl (3R,6S)-6-(cyclohexylmethyl)-3-isobutyl-8-(1-methylpiperidin-4-yl)-4,7-dioxohexahydropyrazino [2,1-c][1,2,4]oxadiazine-1(6H)-carboxylate] is 60.9%.

On to `CC(C)CCOC(=O)N1O[C@H](Cc2ccc(O)cc2)C(=O)N2C1CN([C@@H](CC(C)C)C(=O)NCCc1ccccc1)C(=O)[C@@H]2Cc1ccc(O)cc1` (stereo partly drawn) [Compound I-114, isopentyl (3R,6S)-3,6-bis(4-hydroxybenzyl)-8-((S)-4-methyl-1-oxo-1-(phenethylamino)pentan-2-yl)-4,7-dioxohexahydropyrazino[2,1-c][1,2,4]oxadiazine-1(6H)-carboxylate], for which the inhibition at 10 µM was found to be 56.3%.
